What was measured:
[1] = system: panel of 61 protein kinases; experiment: Panel of 61 protein kinases; type: biochemical, human; details: 10 μM
From the text: Utilizing the crystal structure of PI3Kδ, we designed and synthesized a series of compounds in an effort to discover new potent and selective PI3Kδ inhibitors, which bind to PI3Kδ differently from CAL-101. […] The benzimidazole group of X-370 extends into the affinity pocket, where its nitrogen acts as a hydrogen bond acceptor for the primary amine of Lys779. The difluoromethyl group of X-370 points toward Pro758 in the hydrophobic affinity pocket. Instead of wedging between Met752 and Trp760, a binding mode utilized by CAL-101 to generate specificity against PI3Kδ (Figure S1), the pyrrole group of X-370 presses tightly against Trp760. These specific interactions of X-370 with p110δ confer a selective and potent inhibition of PI3Kδ. […]
In vitro kinase profile assays were analyzed by the Kinase Profiler Service (Millipore, United Kingdom) following its guidelines. […] The PI3K kinase activity was determined in the increasing concentration of ATP and X-370 with PI3-Kinase HTRF™ Assay kit (Millipore) as described previously. […]
Cell lysates were probed with indicated antibodies. The IC50 values were calculated based on relative band intensity measured with ImageQuant™ TL (GE Healthcare Life Sciences, Piscataway, NJ). […]

Raji cells = experiment: Cell cycle distribution (PI staining, FACS); type: cell-based, human; details: 24 h
From the text: Figure 3 PI3Kδ inhibition led to blockade of B cell leukemia cells proliferation via induction of cell cycle arrest and apoptosis Raji cells treated with X-370 for indicated times and at serial diluted concentrations were subjected to Annexin V-FITC/PI staining (A) and PI staining (B) and FACS analysis to show cell apoptosis and cell cycle distribution respectively. (C) X-370 inhibited proliferation of human leukemia primary cells. Freshly isolated human primary mononuclear cells from bone marrow samples of patients were treated with X-370 for 72 h and cell viability was assayed using CCK-8 assay. IC50s of each sample were plotted where 10 μM was assigned to specimens with IC50 >10 μM. Each symbol represents an individual patient sample. […]

## O=C(N1CCCC1)N1CCC(n2cnc3c(-n4c(C(F)F)nc5ccccc54)nc(N4CCOCC4)nc32)CC1 [X-370]
[1]
  activity against all kinases of the panel: little activity
Raji cells
  cell cycle distribution: increase in cell population in G1 phase

From paper PMC4279406, “Simultaneous targeting of PI3Kδ and a PI3Kδ-dependent MEK1/2-Erk1/2 pathway for therapy in pediatric B-cell acute lymphoblastic leukemia” (Oncotarget, 2014)
